Patent US20210228515A1, “BENZOIC ACID OR A SALT AND DERIVATIVE THEREOF FOR USE IN PREVENTING OR TREATING ANTI-N-METHYL-D-ASPARTATE RECEPTOR ENCEPHALITIS” (EXCELSIOR PHARMATECH LABS, priority 2018, published 2021)

Test: Case treatment of a patient with confirmed anti-NMDAR encephalitis
Format: in vivo
Conditions: for response to antipsychotics: high doses: aripiprazole 20-30 mg, clozapine 300-500 mg, clozapine 500 mg plus paliperidone 9 mg, before the diagnosis was confirmed

| Compound | clinical improvement (sodium benzoate 1000 mg per day for 2 months, patient able to return to a normal life) | psychotic symptoms including dissociation and agitation (sodium benzoate 1000 mg per day for 2 months, patient refractory to antipsychotics, ECT and immunotherapy) | response to antipsychotics |
| --- | --- | --- | --- |
| O=C([O-])c1ccccc1.[Na+] [Sodium benzoate, sodium benzoate] | obvious clinical improvement | reduced | – |
| O=C1CCc2ccc(OCCCCN3CCN(c4cccc(Cl)c4Cl)CC3)cc2N1 [aripiprazole] | – | – | very poor response |
| Cc1nc2n(c(=O)c1CCN1CCC(c3noc4cc(F)ccc34)CC1)CCCC2O (stereo not shown) [paliperidone] | – | – | very poor response |
